Measured values taken from ChEMBL document CHEMBL1201862, “PubChem BioAssay data set” (2004).
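Five compound concentrations were applied to cells in 96-well plates for 48 hours; endpoints were derived by simple linear interpolation of the resulting dose-response curve. GI50 marks 50% less growth.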 The source made the active and inactive calls. No stated cut-off is given here; in the data, active = GI50 up to about 1.1 µM and inactive = higher.

What was measured:
Test in all cases: NCI-60 cell line screen, 48 h
LOX IMVI = test system: LOX IMVI
UACC-257 = test system: UACC-257
M14 = test system: M14
RXF 393 = test system: RXF 393
IGROV-1 = test system: IGROV-1
SR = test system: SR
EKVX = test system: EKVX
NCI/ADR-RES = test system: NCI/ADR-RES
CCRF-CEM = test system: CCRF-CEM
ACHN = test system: ACHN
Malme-3M = test system: Malme-3M
SK-OV-3 = test system: SK-OV-3
COLO 205 = test system: COLO 205
K562 = test system: K562
PC-3 = test system: PC-3
OVCAR-8 = test system: OVCAR-8
HCT-15 = test system: HCT-15
HCT-116 = test system: HCT-116
SK-MEL-28 = test system: SK-MEL-28
MDA-MB-231 = test system: MDA-MB-231

N=C(N)NCCCC(NCc1c2ccccc2nc2ccccc12)C(=O)O (stereo not given)
GI50 (LOX IMVI): 26.2 µM (inactive)
GI50 (UACC-257): 33.7 µM (inactive)
GI50 (M14): 48.1 µM (inactive)
GI50 (RXF 393): 57 µM (inactive)
GI50 (IGROV-1): 34.7 µM (inactive)
GI50 (SR): 14.3 µM (inactive)
GI50 (EKVX): 33.1 µM (inactive)
GI50 (NCI/ADR-RES): 28.5 µM (inactive)
GI50 (CCRF-CEM): 9.55 µM (inactive)
GI50 (ACHN): 31.5 µM (inactive)
GI50 (Malme-3M): > 73.1 µM (inactive)
GI50 (SK-OV-3): 53.1 µM (inactive)
GI50 (COLO 205): 37.9 µM (inactive)
GI50 (K562): 10.1 µM (inactive)
GI50 (PC-3): 35.2 µM (inactive)
GI50 (OVCAR-8): 25.7 µM (inactive)
GI50 (HCT-15): 29.4 µM
GI50 (HCT-116): 11.4 µM (inactive)
GI50 (SK-MEL-28): > 66.7 µM (inactive)
GI50 (MDA-MB-231): 23.8 µM (inactive)

CC(=O)Oc1cccc2c1C(=O)CCCC2
GI50 (LOX IMVI): > 100 µM (inactive)
GI50 (UACC-257): > 100 µM (inactive)
GI50 (M14): > 100 µM (inactive)
GI50 (RXF 393): > 100 µM (inactive)
GI50 (IGROV-1): > 100 µM (inactive)
GI50 (SR): > 100 µM (inactive)
GI50 (EKVX): > 100 µM (inactive)
GI50 (NCI/ADR-RES): > 100 µM (inactive)
GI50 (CCRF-CEM): > 100 µM (inactive)
GI50 (ACHN): > 100 µM (inactive)
GI50 (Malme-3M): > 100 µM (inactive)
GI50 (SK-OV-3): > 100 µM (inactive)
GI50 (COLO 205): > 100 µM (inactive)
GI50 (K562): > 100 µM (inactive)
GI50 (PC-3): > 100 µM (inactive)
GI50 (OVCAR-8): > 100 µM (inactive)
GI50 (HCT-15): > 100 µM
GI50 (HCT-116): > 100 µM (inactive)
GI50 (SK-MEL-28): > 100 µM (inactive)
GI50 (MDA-MB-231): > 100 µM (inactive)

OC(COc1cccc2ccccc12)CN1CCOCC1 (stereo not given)
GI50 (LOX IMVI): > 100 µM (inactive)
GI50 (UACC-257): > 100 µM (inactive)
GI50 (M14): > 100 µM (inactive)
GI50 (RXF 393): > 100 µM (inactive)
GI50 (IGROV-1): 39.9 µM (inactive)
GI50 (SR): > 100 µM (inactive)
GI50 (EKVX): 95.1 µM (inactive)
GI50 (NCI/ADR-RES): > 100 µM (inactive)
GI50 (CCRF-CEM): > 100 µM (inactive)
GI50 (ACHN): > 100 µM (inactive)
GI50 (Malme-3M): > 100 µM (inactive)
GI50 (SK-OV-3): > 100 µM (inactive)
GI50 (COLO 205): > 100 µM (inactive)
GI50 (K562): > 100 µM (inactive)
GI50 (PC-3): > 100 µM (inactive)
GI50 (OVCAR-8): > 100 µM (inactive)
GI50 (HCT-15): > 100 µM
GI50 (HCT-116): > 100 µM (inactive)
GI50 (SK-MEL-28): > 100 µM (inactive)
GI50 (MDA-MB-231): > 100 µM (inactive)

O=C(O)c1cc2c(s1)C(=O)c1sccc1C2=O
GI50 (LOX IMVI): 1.32 µM (inactive)
GI50 (UACC-257): 3.51 µM (inactive)
GI50 (M14): 1.43 µM (inactive)
GI50 (RXF 393): 6.87 µM (inactive)
GI50 (IGROV-1): 17.1 µM (inactive)
GI50 (SR): 2.81 µM (inactive)
GI50 (EKVX): 15.7 µM (inactive)
GI50 (NCI/ADR-RES): 5.4 µM (inactive)
GI50 (CCRF-CEM): 6.84 µM (inactive)
GI50 (ACHN): 8.43 µM (inactive)
GI50 (Malme-3M): 0.659 µM (active)
GI50 (SK-OV-3): 20.6 µM (inactive)
GI50 (COLO 205): 17.2 µM (inactive)
GI50 (K562): 4.03 µM (inactive)
GI50 (PC-3): 9.82 µM (inactive)
GI50 (OVCAR-8): 4.09 µM (inactive)
GI50 (HCT-15): 3.93 µM
GI50 (HCT-116): 2.22 µM (inactive)
GI50 (SK-MEL-28): 1.9 µM (inactive)
GI50 (MDA-MB-231): 9.73 µM (inactive)

O=c1oc2ccc([N+](=O)[O-])cc2c(Nc2ccc3c(c2)Oc2ccccc2O3)c1[N+](=O)[O-]
GI50 (LOX IMVI): 31.7 µM (inactive)
GI50 (UACC-257): 26.2 µM (inactive)
GI50 (M14): 30.1 µM (inactive)
GI50 (RXF 393): 56 µM (inactive)
GI50 (IGROV-1): 28.6 µM (inactive)
GI50 (SR): 31 µM (inactive)
GI50 (EKVX): 31.6 µM (inactive)
GI50 (NCI/ADR-RES): 29.9 µM (inactive)
GI50 (CCRF-CEM): 30.1 µM (inactive)
GI50 (ACHN): 32.2 µM (inactive)
GI50 (Malme-3M): 69.8 µM (inactive)
GI50 (SK-OV-3): 41.4 µM (inactive)
GI50 (COLO 205): 21.7 µM (inactive)
GI50 (K562): 30 µM (inactive)
GI50 (PC-3): 25 µM (inactive)
GI50 (OVCAR-8): 26.8 µM (inactive)
GI50 (HCT-15): 31.1 µM
GI50 (HCT-116): 29 µM (inactive)
GI50 (SK-MEL-28): 39.9 µM (inactive)
GI50 (MDA-MB-231): 19.1 µM (inactive)

CSCCC(NCc1c(O)ccc2ccc(=O)oc12)C(=O)O (stereo not given)
GI50 (LOX IMVI): > 100 µM (inactive)
GI50 (UACC-257): > 100 µM (inactive)
GI50 (M14): > 100 µM (inactive)
GI50 (RXF 393): > 100 µM (inactive)
GI50 (IGROV-1): > 100 µM (inactive)
GI50 (SR): > 100 µM (inactive)
GI50 (EKVX): > 100 µM (inactive)
GI50 (NCI/ADR-RES): > 100 µM (inactive)
GI50 (CCRF-CEM): > 100 µM (inactive)
GI50 (ACHN): > 100 µM (inactive)
GI50 (Malme-3M): > 100 µM (inactive)
GI50 (SK-OV-3): > 100 µM (inactive)
GI50 (COLO 205): > 100 µM (inactive)
GI50 (K562): > 100 µM (inactive)
GI50 (PC-3): > 100 µM (inactive)
GI50 (OVCAR-8): > 100 µM (inactive)
GI50 (HCT-15): > 100 µM
GI50 (HCT-116): > 100 µM (inactive)
GI50 (SK-MEL-28): > 100 µM (inactive)
GI50 (MDA-MB-231): > 100 µM (inactive)
